Assay [1] relates to ADP-induced platelet aggregation in canine platelet rich plasma. The experiment in a line: Inhibition of ADP-Induced ex-vivo Platelet Aggregation after oral administration. It counts as in vivo, mongrel dogs. Conditions: Canis lupus familiaris, Platelet, dog, dose 5 mg/kg. On the procedure: Inhibition of ADP-Induced ex-vivo Platelet Aggregation
Control blood samples are obtained 5-10 minutes prior to administration of the test compound in mongrel dogs weighing from 10 to 20 kg. The compound is administered intragasticly, via aqueous gavage, or orally, via gelatin capsule. Blood samples (5 ml) are then obtained at 30 minute intervals for 3 hours, and at 6, 12, and 24 hours after dosing. Each blood sample is obtained by venipuncture of the cephalic vein and is collected directly into a plastic syringe containing one part 3.8% trisodium citrate to nine parts blood.
Ex vivo Canine Platelet Aggregation
The blood samples are centrifuged at 1000 rpm for 10 minutes to obtain platelet rich plasma (PRP). After removal of the PRP, the sample is centrifuged for an additional 10 minutes at 2000 rpm to obtain platelet poor plasma (PPP). Platelet count in the PRP is determined by using a Coulter Counter (Coulter Electronics, Hialeah, Fla.). If the concentration of platelets in the PRP is greater than 300,000 platelets/μl, then the PRP is diluted with PPP to adjust the platelet count to 300,000 platelets/μl. Aliquots of PRP (250 μl) are then placed in siliconized glass cuvettes (7.25×55 mm, Bio/Data Corp, Horsham, Pa.). Epinephrine (final concentration of 1 μM) is then added to the PRP, which is incubated for one minute at 37° C. A stimulator of platelet aggregation, ADP at a final concentration of 10 μM, is then added to the PRP. Platelet aggregation is monitored spectrophotometrically utilizing a light transmission aggregometer (Bio/Data Platelet Aggregation Profiler, Model PAP-4, Bio/Data Corp, Horsham, Pa.). For compound to be tested, the rate of change (slope) of light transmittance and the maximum light transmittance (maximum aggregation) is recorded in duplicate. Platelet aggregation data are reported as the percent decrease (mean±SEM) in slope or maximum aggregation as compared to data obtained from control PRP, which is prepared from blood samples obtained prior to administration of the test compound.

For assay [2], the system named is fixed activated platelets. In words: Platelet Aggregation Assay (fixed-activated platelets, fibrinogen-mediated aggregation). The assay is classed as cell-based. Conditions: aggregation initiated by human fibrinogen 250 μg/ml, read-out: Inhibition of Fixed Platelet Aggregation (IC50 μM). On the procedure:
Preparation of Fixed-Activated Platelets
Platelets are isolated from human platelet concentrates using the gel-filtration technique as described by Marguerie, G. A., et al., J. Biol. Chem. 254, 5357-5363 (1979) and Ruggeri, Z. M., et al., J. Clin. Invest. 72, 1-12 (1983). The platelets are suspended at a concentration of 2×10^8 cells/ml in a modified calcium-free Tyrode's buffer containing 127 mM sodium chloride, 2 mM magnesium chloride, 0.42 mM Na2HPO4, 11.9 mM NaHCO3, 2.9 mM KCl, 5.5 mM glucose, 10 mM HEPES, at a pH of 7.35 and 0.35% human serum albumin (HSA). These washed platelets are activated by addition of human a-thrombin at a final concentration of 2 units/ml, followed by thrombin inhibitor I-2581 at a final concentration of 40 μM. To the activated platelets is added paraformaldehyde to a final concentration of 0.50% and this incubated at room temperature for 30 minutes. The fixed activated platelets are then collected by centrifugation at 650×g for 15 minutes. The platelet pellets are washed four times with the above Tyrode's-0.35% HSA buffer and resuspended to 2×10^8 cells/ml in the same buffer.
Platelet Aggregation Assay
The fixed activated platelets are incubated with a selected dose of the compound to be tested for platelet aggregation inhibition for one minute and aggregation initiated by addition of human fibrinogen to a final concentration of 250 μg/ml. A platelet aggregation profiler Model PAP-4 is used to record the platelet aggregation. The extent of inhibition of aggregation is expressed as the percentage of the rate of aggregation observed in the absence of inhibitor.

[3] abbreviates: 1 h after dosing, read-out: % Inhibition of ex-vivo Platelet Aggregation After Oral Administration, 1 h.
Where [4] appears, read: 3 h after dosing, read-out: % Inhibition of ex-vivo Platelet Aggregation After Oral Administration, 3 h.

SMILES strings stand for the structures. Like-named read-outs stand apart in the source and are kept apart here.

Take `CCN(CC(=O)NC(CC(=O)O)C(=O)NC(Cc1ccc2ccccc2c1)C(=O)O)C(=O)CCCC1CCNCC1` [Example 8, N-[N-[N-(4(piperidin-4-yl)butanoyl)-N-ethylglycyl]aspartyl]-L-b-naphth-2-yl alanine]: the inhibition at 5 mg/kg is 30% in assay [1] (setting [3]) and below 20% in assay [1] (setting [4]). What is called IC50 is the point on the concentration scale where inhibition reaches its midpoint. For the compound `CCN(CC(=O)NC(CC(=O)O)C(=O)NC(C(=O)O)C(C)C)C(=O)CCC1CCNCC1` (stereo not shown) [Example 9, N-[N-[N-(3-(piperidin-4-yl)propanoyol)-N-ethylglycyl]aspartyl]valine], in assay [2] (Homo sapiens, Platelet), the IC50 came to 0.77 µM. As for `CCN(CC(=O)NC(CC(=O)O)C(=O)NC(C(=O)O)C1CCCCC1)C(=O)CCCC1CCNCC1` [Example 13, N-[N-[N-(4-(piperidin-4-yl)butanoyl)-N-ethylglycyl]aspartyl]-L-a-cyclohexyl glycine], the inhibition at 5 mg/kg is 100% in assay [1] (setting [3]); 100% in assay [1] (setting [4]); 25% in assay [1] (6 h after dosing, read-out: % Inhibition of ex-vivo Platelet Aggregation After Oral Administration, 6 h). On to `CCN(CC(=O)NC(CC(=O)O)C(=O)NC(CC1CCC2CCCCC2C1)C(=O)O)C(=O)CCCC1CCNCC1` [Example 17, N-[N-[N-(4-(piperidin-4-yl)butanoyl)-N-ethylglycyl]aspartyl]-L-b-cis-decahydronaphth-2-ylalanine], for which the IC50 in assay [2] (Homo sapiens, Platelet) worked out at 0.096 µM. The same measure, in the same setting: for `CCN(CC(=O)NC(CC(=O)O)C(=O)OCCCC12CC3CC(CC(C3)C1)C2)C(=O)CCCC1CCNCC1` (stereo not shown) [Example 18, 3-Adamant-1-ylpropyl-N-[N-(4-(piperidin-4-yl)butanoyl)-N-ethylglycyl]aspartate] the value was 0.104 µM; for `CCN(CC(=O)NC(CC(=O)O)C(=O)N[C@H](CC1CCCCC1)C(=O)O)C(=O)CCCC1CCNCC1` (stereo partly drawn) [Example 20, N-[N-[N-(4-(piperidin-4-yl)butanoyl)-N-ethylglycyl]aspartyl]-b-cyclohexyl-D-alanine], 1.37 µM. For `CCN(CC(=O)NC(CC(=O)O)C(=O)NC(CC1CCCC2CCCCC21)C(=O)O)C(=O)CCCC1CCNCC1` (stereo not shown) [Example 21, N-[N-[N-(4-(piperidin-4-yl)butanoyl)-N-ethylglycyl]aspartyl]-b-decahydronaphth-1-ylalanine], in assay [2] (fixed activated human platelets), the IC50 came to 0.055 µM.

As to `CCNC(=O)C(CC1CCCCC1)NC(=O)C(CC(=O)O)NC(=O)CN(CC)C(=O)CCCC1CCNCC1` (stereo not shown) [Example 22, N-[N-[N-(4-(piperidin-4-yl)butanoyl)-N-ethylglycyl]aspartyl]-b-cyclohexylalanine ethyl amide], in assay [2] (Homo sapiens, Platelet), the concentration for half-maximal inhibition (IC50) is 0.09 µM. Still for that read-out and setting: for `CCN(CC(=O)NC(CC(=O)O)C(=O)NC(CC1CCCCCCC1)C(=O)O)C(=O)CCCC1CCNCC1` (stereo not shown) [Example 23, N-[N-[N-(4-(piperidin-4-yl)butanoyl)-N-ethylglycyl]aspartyl]-b-cyclooctylalanine] the value was 0.078 µM; for `CCN(CC(=O)NC(CC(=O)O)C(=O)NC(CO)CC1CCCCC1)C(=O)CCCC1CCNCC1` (stereo not shown) [Example 24, N-[N-[N-(4-(piperidin-4-yl)butanoyl)-N-ethylglycyl]aspartyl]-a-cyclohexylmethylethanolamine], 0.129 µM.

For the compound `CCN(CC(=O)NC(CC(=O)O)C(=O)NC(CCC1CCCCC1)C(N)=O)C(=O)CCCC1CCNCC1` (stereo not shown) [Example 25, N-[N-[N-(4-(piperidin-4-yl)butanoyl)-N-ethylglycyl]aspartyl]-b-cyclohexylmethylalanine amide], in assay [2] (Homo sapiens, Platelet), the IC50 worked out at 0.046 µM. On the same count and under the same terms, the value for `CCN(CC(=O)NC(CC(=O)O)C(=O)NC(CC12CC3CC(CC(C3)C1)C2)C(=O)O)C(=O)CCCC1CCNCC1` (stereo not shown) [Example 26, N-[N-[N-(4-(piperidin-4-yl)butanoyl)-N-ethylglycyl]aspartyl]-b-adamant-1-ylalanine] was 0.029 µM.

In the case of `CCN(CC(=O)NC(CC(=O)O)C(=O)NC(Cc1cccc2c1CCCC2)C(=O)O)C(=O)CCCC1CCNCC1` (stereo not shown) [Example 27, N-[N-[N-(4-(piperidin-4-yl)butanoyl)-N-ethylglycyl]aspartyl]-b-(1,2,3,4)-tetrahydronaphth-5-ylalanine], the IC50 in assay [2] (Homo sapiens, Platelet) turned out to be 0.119 µM.

Values taken from patent US6797700B2, “Antithrombotic azacycloalkylalkanoyl peptides and pseudopeptides” (Aventis Pharmaceuticals, Inc., priority 1993, dated 2004).
